For 1 molecule, pest or weed control and plant injury results are on record in patent publication US12077503B2, “Substituted cyclic amides and their use as herbicides” (FMC CORPORATION, priority 2015, dated 2024).

What all share (assay type): in vivo
The test system of test [1] is barnyardgrass (Echinochloa crus-galli). The experiment in a line: Test A preemergence. Particulars: Echinochloa crus-galli, pre-emergence, 240 h. An outline of the steps:
(§1)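 Preemergence soil spray on seeded pots or post-emergence spray on 1–2 leaf plants, in loam–sand blend. Greenhouse ~10 d. Visual rating 0–100 against untreated plants.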

The test system of test [2] is Kochia (Kochia scoparia). Nature of the test: Test A preemergence. Particulars: Bassia scoparia, pre-emergence, 240 h. An outline of the steps: as §1
Test [3] concerns pigweed (Amaranthus retroflexus). The experiment in a line: Test A preemergence. Particulars: Amaranthus retroflexus, pre-emergence, 240 h.
In test [4] the test system is ragweed (common ragweed, Ambrosia elatior). Nature of the test: Test A preemergence. Particulars: Ambrosia artemisiifolia, pre-emergence, 240 h. The gist of the method: as §1
The test system of test [5] is ryegrass, Italian (Italian ryegrass, Lolium multiflorum). Nature of the test: Test A preemergence. Particulars: Lolium multiflorum, pre-emergence, 240 h. The gist of the method: as §1
The subject of test [6] is giant foxtail (Setaria faberii). Nature of the test: Test A preemergence. Particulars: Setaria faberi, pre-emergence, 240 h. The gist of the method:
as §1

Test [7] relates to barnyardgrass (Echinochloa crus-galli). The experiment in a line: Test A postemergence. Particulars: Echinochloa crus-galli, post-emergence, 240 h, 125 g ai/ha, postemergence, visual injury rating after approximately 10 d; read-out: Barnyardgrass plant response rating (0 to 100 scale, 0 no effect, 100 complete control). The gist of the method:
as §1

In test [8] the test system is Galium (catchweed bedstraw, Galium aparine). The experiment in a line: Test A postemergence. Particulars: Galium, post-emergence, 240 h, 125 g ai/ha, postemergence, visual injury rating after approximately 10 d; read-out: Galium plant response rating (0 to 100 scale, 0 no effect, 100 complete control). The gist of the method: as §1
The subject of test [9] is wheat (Triticum aestivum). Nature of the test: Test A postemergence. Particulars: Triticum aestivum, post-emergence, 240 h, 125 g ai/ha, postemergence, visual injury rating after approximately 10 d; read-out: Wheat plant response rating (0 to 100 scale, 0 no effect, 100 complete control). An outline of the steps: as §1
Test [10] relates to Kochia (Kochia scoparia). Nature of the test: Test A postemergence. Particulars: Bassia scoparia, post-emergence, 240 h, 125 g ai/ha, postemergence, visual injury rating after approximately 10 d; read-out: Kochia plant response rating (0 to 100 scale, 0 no effect, 100 complete control). An outline of the steps:
as §1

Test [11] concerns pigweed (Amaranthus retroflexus). The experiment in a line: Test A postemergence. Particulars: Amaranthus retroflexus, post-emergence, 240 h, 125 g ai/ha, postemergence, visual injury rating after approximately 10 d; read-out: Pigweed plant response rating (0 to 100 scale, 0 no effect, 100 complete control). The gist of the method:
as §1

For test [12], the system named is ragweed (common ragweed, Ambrosia elatior). Nature of the test: Test A postemergence. Particulars: Ambrosia artemisiifolia, post-emergence, 240 h, 125 g ai/ha, postemergence, visual injury rating after approximately 10 d; read-out: Ragweed plant response rating (0 to 100 scale, 0 no effect, 100 complete control). An outline of the steps: as §1
The test system of another test is corn (Zea mays). Nature of the test: Test A postemergence. Particulars: Zea mays, post-emergence, 240 h, 125 g ai/ha, postemergence, visual injury rating after approximately 10 d; read-out: Corn plant response rating (0 to 100 scale, 0 no effect, 100 complete control). An outline of the steps:
as §1

Test [13] deals with ryegrass, Italian (Italian ryegrass, Lolium multiflorum). The experiment in a line: Test A postemergence. Particulars: Lolium multiflorum, post-emergence, 240 h, 125 g ai/ha, postemergence, visual injury rating after approximately 10 d; read-out: Ryegrass, Italian plant response rating (0 to 100 scale, 0 no effect, 100 complete control). The gist of the method:
as §1

The subject of test [14] is giant foxtail (Setaria faberii). The experiment in a line: Test A postemergence. The settings on record: Setaria faberi, post-emergence, 240 h, 125 g ai/ha, postemergence, visual injury rating after approximately 10 d; read-out: Foxtail, Giant plant response rating (0 to 100 scale, 0 no effect, 100 complete control). The gist of the method: as §1

On to `COc1c(F)ccc([C@H]2CNC(=O)[C@@H]2C(=O)Nc2ccc(F)c(F)c2F)c1Cl` [Compound 890], for which the pest or weed control at 125 g/ha in [1] (125 g ai/ha, preemergence, 0 to 100 scale where 0 is no effect and 100 is complete control, read-out: Barnyardgrass plant response rating) was 90%; with Kochia (Kochia scoparia) [2] (125 g ai/ha, preemergence, 0 to 100 scale where 0 is no effect and 100 is complete control, read-out: Kochia plant response rating) it was 40%; in [3] (125 g ai/ha, preemergence, 0 to 100 scale where 0 is no effect and 100 is complete control, read-out: Pigweed plant response rating), 30%; in test [4] (125 g ai/ha, preemergence, 0 to 100 scale where 0 is no effect and 100 is complete control, read-out: Ragweed plant response rating), 0%; in [5] (125 g ai/ha, preemergence, 0 to 100 scale where 0 is no effect and 100 is complete control, read-out: Ryegrass, Italian plant response rating), 50%; in test [6] (125 g ai/ha, preemergence, 0 to 100 scale where 0 is no effect and 100 is complete control, read-out: Foxtail, Giant plant response rating), 90%. The pest or weed control at 125 g/ha in test [7] is 90%; in test [8], 50%; in the test with Kochia (Kochia scoparia) [10], 60%; in [11], 0%; in test [12], 0%; in test [13], 0%. The pest or weed control at 125 g/ha in test [14] was 70%. Moreover, the pest or weed control at 500 g/ha in test [1] (500 g ai/ha, Preemergence, visual injury vs untreated controls after approximately 10 d, read-out: Barnyardgrass plant response rating (0 to 100 scale where 0 is no effect and 100 is complete control)) was found to be 90%; with Kochia (Kochia scoparia) [2] (500 g ai/ha, Preemergence, visual injury vs untreated controls after approximately 10 d, read-out: Kochia plant response rating (0 to 100 scale where 0 is no effect and 100 is complete control)) it was 90%; in test [3] (500 g ai/ha, Preemergence, visual injury vs untreated controls after approximately 10 d, read-out: Pigweed plant response rating (0 to 100 scale where 0 is no effect and 100 is complete control)), 50%; in test [4] (500 g ai/ha, Preemergence, visual injury vs untreated controls after approximately 10 d, read-out: Ragweed plant response rating (0 to 100 scale where 0 is no effect and 100 is complete control)) it was 0%; in test [5] (500 g ai/ha, Preemergence, visual injury vs untreated controls after approximately 10 d, read-out: Ryegrass, Italian plant response rating (0 to 100 scale where 0 is no effect and 100 is complete control)) it was 70%; in test [6] (500 g ai/ha, Preemergence, visual injury vs untreated controls after approximately 10 d, read-out: Foxtail, Giant plant response rating (0 to 100 scale where 0 is no effect and 100 is complete control)), 90%. In addition, the plant injury at 125 g/ha in test [9] stood at 0%; in the test on corn (Zea mays), 20%.
